In brackets after ≈: the same amount, converted by molar mass.
Tests used:
[1] = tested on: T1, Staphylococcus aureus NCTC-8325; experiment: microbe, parasite or virus in culture; set-up: antimicrobial susceptibility assay, MIC, growth inhibition of S. aureus parent strain; conditions: NCTC8325
T1 construct: NCTC 8325
Experimental: The ability of S. aureus to develop resistance to BASA was investigated using both spontaneous resistance and serial passage approaches. The S. aureus NCTC 8325 strain was selected due to the availability of a sequenced reference genome for comparative sequence analysis. To measure the rate at which spontaneous resistance develops, 10^9 S. aureus cells were plated onto media containing four times the MIC of BASA. No resistant mutants grew after 24 hours which equates to a calculated resistance frequency of <10^−9 at this inhibitor concentration. BASA resistant S. aureus strains were subsequently generated by the serial passage of seven populations of S. aureus NCTC 8325 in sub-inhibitory concentrations of BASA for 18 days at which time individual colonies were isolated. These were then passaged on non-selective media to verify that the inherited resistance was genetically stable. The sensitivity of the strains to BASA was then established using antimicrobial sensitivity assays (Table 2 and Figure S8A). The isotypic parent strain was highly sensitive to BASA, with an MIC of 0.0625 µg/mL. […] To determine if there was a fitness cost associated with these mutations, in vitro growth curves for the seven strains were analyzed and doubling times calculated (Table 2, Figure S8B). […] To test if the resistance mechanisms identified were specific for BASA, all seven strains were subjected to antibacterial susceptibility assays against a panel of diverse antibiotics that included two known BPL inhibitors, namely biotinol-5′-AMP [32] and BPL223 (compound 4c in [30]). The evolved resistance mechanisms appeared specific to the BPL inhibitors as there was no change in susceptibility to β-lactams amoxicillin and methicillin (Table S1).

[2] = biological target: T2, biotin protein ligase (SaBPL) (Staphylococcus aureus, UniProt A0A3A5LBF0); experiment: native nESI-MS of holo protein (homodimer); assay type: binding
T2 construct: gene birA; recombinant SaBPL

[3] = biological target: T3, biotin protein ligase (SaBPL-D200E) (Staphylococcus aureus, UniProt A0A3A5LBF0, D200E); experiment: native nESI-MS of holo protein (monomer); assay type: binding
T3 construct: gene birA; recombinant SaBPL-D200E

[4] = biological target: Staphylococcus aureus biotin protein ligase (SaBPL), wildtype (S. aureus Mu50); experiment: native MS; native nESI-MS (Waters Synapt G1 HDMS), holo protein (biotinyl-5'-AMP bound); 10 uM wildtype SaBPL; SaBPL-D200E at 1.4 to 90 uM; monomer to dimer
[5] = tested on: O=C(O)CCCC[C@@H]1SC[C@@H]2NC(=O)N[C@@H]21; experiment: purified protein; conditions: MgATP biotin-binding pocket (biotin-binding loop residues […])
[6] = tested on: O=C(O)CCCC[C@@H]1SC[C@@H]2NC(=O)N[C@@H]21; experiment: in vitro protein biotinylation assay, Km; assay type: biochemical, Staphylococcus aureus; conditions: MgATP biotin-binding pocket (biotin-binding loop residues […])
[7] = biological target: SaBPL (biotin protein ligase, BirA) wild type (Staphylococcus aureus Mu50, UniProt A0A0H3JRH8 1-323); experiment: EMSA; 100 uM biotin + MgATP, 2.5% DMSO (control for BASA); EMSA adapted from cited protocols; buffer, salt, pH and temperature not given; BASA or biotin at 100 uM with 2.5% DMSO in the Fig S7 assays; conditions: protein: recombinant

CC1(C)S[C@@H]2[C@H](NC(=O)[C@H](N)c3ccc(O)cc3)C(=O)N2[C@H]1C(=O)O [amoxicillin]
MIC [1]: 16 µg/mL (≈ 43.8 µM)

Nc1ncnc2c1ncn2[C@@H]1O[C@H](COP(=O)(O)OCCCCC[C@@H]2SC[C@@H]3NC(=O)N[C@@H]32)[C@@H](O)[C@H]1O [biotinol-5'-AMP, biotinol-5′-AMP]
MIC [1]: 1 µg/mL (≈ 1.79 µM)

Nc1ncnc2c1ncn2[C@@H]1O[C@H](COP(=O)(O)OC(=O)CCCC[C@@H]2SC[C@@H]3NC(=O)N[C@@H]32)[C@@H](O)[C@H]1O [biotinyl-5′-AMP]
native nESI-MS of holo protein (homodimer) [2]: SaBPL underwent a well-characterized monomer-to-dimer transition induced by biotinyl-5′-AMP (Figure 3A,B)
native nESI-MS of holo protein (monomer) [3]: native nESI–MS provided sufficient mass resolution to confirm the presence of bound biotinyl-5′-AMP

COc1cccc(OC)c1C(=O)N[C@@H]1C(=O)N2[C@@H]1SC(C)(C)[C@@H]2C(=O)O [methicillin]
MIC [1]: 2 µg/mL (≈ 5.26 µM)

Staphylococcus aureus biotin protein ligase (SaBPL), wildtype (enzyme)
stoichiometry N [4]: 2

biotin protein ligase (SaBPL) (Staphylococcus aureus)
Km [5]: 1.8 ± 0.3 µM

biotin protein ligase (SaBPL-D200E) (Staphylococcus aureus; D200E)
Km [6]: 3.8 ± 0.4 µM

B1: bioO (dsDNA)
DNA 1: CCTTAAATGTAAACTTTTATAATTAATAAGTTTACATTTAAG
DNA 2: CCTTAAATGTAAACTTATTAATTATAAAAGTTTACATTTAAGG
binding result ([7]; bottom strand 5' overhang 1 nt as printed (top 42 nt lacks the final G)): binds

B2: bioY (dsDNA)
DNA 1: AACTTATTGTAAACTTTTCATTTCTTAAAGTTTACAATGGTGCT
DNA 2: AGCACCATTGTAAACTTTAAGAAATGAAAAGTTTACAATAAGTT
binding result ([7]; blunt): binds

Source: paper PMC7235819, “Advanced Resistance Studies Identify Two Discrete Mechanisms in Staphylococcus aureus to Overcome Antibacterial Compounds that Target Biotin Protein Ligase” (Antibiotics, 2020)
